Measurements: ChEMBL document CHEMBL1914384, “Design, synthesis, and structure-activity relationship studies of highly potent novel benzoxazinyl-oxazolidinone antibacterial agents” (J Med Chem, 2011)
≈ marks a conversion by molar mass, not a printed value.

Legend:
Format in all cases: functional
[1] = system: Staphylococcus aureus; assay: Antibacterial activity against Staphylococcus aureus ATCC 29213 after 16 hrs by agar dilution method; settings: ATCC 29213, 16 h
[2] = system: Staphylococcus aureus; assay: Antibacterial activity against methicillin-resistant Staphylococcus aureus after 16 hrs by agar dilution method
[3] = system: Staphylococcus epidermidis; assay: Antibacterial activity against methicillin-resistant Staphylococcus epidermidis after 16 hrs by agar dilution method
[4] = system: Streptococcus pneumoniae; assay: Antibacterial activity against penicillin-resistant Streptococcus pneumoniae after 16 hrs by agar dilution method
[5] = system: Enterococcus faecalis; assay: Antibacterial activity against Enterococcus faecalis after 16 hrs by agar dilution method
[6] = system: Staphylococcus aureus; assay: Antibacterial activity against linezolid-resistant Staphylococcus aureus after 16 hrs by agar dilution method
[7] = system: Staphylococcus epidermidis; assay: Antibacterial activity against linezolid-resistant Staphylococcus epidermidis after 16 hrs by agar dilution method
[8] = system: Enterococcus faecalis; assay: Antibacterial activity against linezolid-resistant Enterococcus faecalis after 16 hrs by agar dilution method
[9] = system: Enterococcus faecium; assay: Antibacterial activity against linezolid-resistant Enterococcus faecium after 16 hrs by agar dilution method

CC(=O)NC[C@@H]1OC(=O)N2c3ccc(N4CCOCC4)cc3OC[C@@H]12
MIC [1]: 4 µg/mL (≈ 11.5 µM) | MIC [2]: 4 µg/mL (≈ 11.5 µM) | MIC [3]: 4 µg/mL (≈ 11.5 µM) | MIC [4]: 8 µg/mL (≈ 23 µM) | MIC [5]: 8 µg/mL (≈ 23 µM)

CC(=O)NC[C@@H]1OC(=O)N2c3ccc(N4CCN(Cc5cccc([N+](=O)[O-])c5)CC4)cc3OC[C@@H]12
MIC [1]: > 16 µg/mL | MIC [2]: > 16 µg/mL | MIC [3]: > 16 µg/mL | MIC [4]: > 16 µg/mL | MIC [5]: > 16 µg/mL

CC(=O)NC[C@@H]1OC(=O)N2c3ccc(N4CCN(Cc5ccccc5[N+](=O)[O-])CC4)cc3OC[C@@H]12
MIC [1]: 8 µg/mL (≈ 16.6 µM) | MIC [2]: 8 µg/mL (≈ 16.6 µM) | MIC [3]: 8 µg/mL (≈ 16.6 µM) | MIC [4]: > 16 µg/mL | MIC [5]: > 16 µg/mL

CC(=O)NC[C@@H]1OC(=O)N2c3ccc(N4CCN(Cc5ccncc5)CC4)cc3OC[C@@H]12
MIC [1]: 16 µg/mL (≈ 36.6 µM) | MIC [2]: > 16 µg/mL | MIC [3]: > 16 µg/mL | MIC [4]: > 16 µg/mL | MIC [5]: > 16 µg/mL

CC(=O)NC[C@@H]1OC(=O)N2c3ccc(N4CCN(Cc5cccnc5)CC4)cc3OC[C@@H]12
MIC [1]: 16 µg/mL (≈ 36.6 µM) | MIC [2]: > 16 µg/mL | MIC [3]: > 16 µg/mL | MIC [4]: > 16 µg/mL | MIC [5]: > 16 µg/mL

CC(=O)NC[C@@H]1OC(=O)N2c3ccc(N4CCN(Cc5ccccn5)CC4)cc3OC[C@@H]12
MIC [1]: 16 µg/mL (≈ 36.6 µM) | MIC [2]: > 16 µg/mL | MIC [3]: > 16 µg/mL | MIC [4]: > 16 µg/mL | MIC [5]: > 16 µg/mL

CC(=O)NC[C@@H]1OC(=O)N2c3ccc(N4CCN(Cc5ccco5)CC4)cc3OC[C@@H]12
MIC [1]: > 16 µg/mL | MIC [2]: 16 µg/mL (≈ 37.5 µM) | MIC [3]: > 16 µg/mL | MIC [4]: > 16 µg/mL | MIC [5]: > 16 µg/mL

CC(=O)NC[C@@H]1OC(=O)N2c3ccc(N4CCN(Cc5ccoc5)CC4)cc3OC[C@@H]12
MIC [1]: 16 µg/mL (≈ 37.5 µM) | MIC [2]: > 8 µg/mL | MIC [3]: 8 µg/mL (≈ 18.8 µM) | MIC [4]: > 16 µg/mL | MIC [5]: > 16 µg/mL

CC(=O)NC[C@@H]1OC(=O)N2c3ccc(N4CCN(Cc5ccc([N+](=O)[O-])o5)CC4)cc3OC[C@@H]12
MIC [1]: 4 µg/mL (≈ 8.48 µM) | MIC [2]: 4 µg/mL (≈ 8.48 µM) | MIC [3]: 2 µg/mL (≈ 4.24 µM) | MIC [4]: > 8 µg/mL | MIC [5]: > 16 µg/mL

CC(=O)NC[C@@H]1OC(=O)N2c3ccc(-c4cccs4)cc3OC[C@@H]12
MIC [1]: 1 µg/mL (≈ 2.9 µM) | MIC [2]: 1 µg/mL (≈ 2.9 µM) | MIC [3]: 1 µg/mL (≈ 2.9 µM) | MIC [4]: 1 µg/mL (≈ 2.9 µM) | MIC [5]: 4 µg/mL (≈ 11.6 µM)

CC(=O)NC[C@@H]1OC(=O)N2c3ccc(-c4ccsc4)cc3OC[C@@H]12
MIC [1]: 2 µg/mL (≈ 5.81 µM) | MIC [2]: 2 µg/mL (≈ 5.81 µM) | MIC [3]: 2 µg/mL (≈ 5.81 µM) | MIC [4]: 2 µg/mL (≈ 5.81 µM) | MIC [5]: 4 µg/mL (≈ 11.6 µM)

CC(=O)NC[C@@H]1OC(=O)N2c3ccc(-c4ccccc4)cc3OC[C@@H]12
MIC [1]: 0.5 µg/mL (≈ 1.48 µM) | MIC [2]: 0.5 µg/mL (≈ 1.48 µM) | MIC [3]: 1 µg/mL (≈ 2.96 µM) | MIC [4]: 0.5 µg/mL (≈ 1.48 µM) | MIC [5]: 2 µg/mL (≈ 5.91 µM)

CC(=O)NC[C@@H]1OC(=O)N2c3ccc(-c4cccc([N+](=O)[O-])c4)cc3OC[C@@H]12
MIC [1]: 0.5 µg/mL (≈ 1.3 µM) | MIC [2]: 0.5 µg/mL (≈ 1.3 µM) | MIC [3]: 0.5 µg/mL (≈ 1.3 µM) | MIC [4]: 0.5 µg/mL (≈ 1.3 µM) | MIC [5]: 2 µg/mL (≈ 5.22 µM)

CC(=O)NC[C@@H]1OC(=O)N2c3ccc(-c4ccc(C#N)cc4)cc3OC[C@@H]12
MIC [1]: 0.25 µg/mL (≈ 0.688 µM) | MIC [2]: 0.5 µg/mL (≈ 1.38 µM) | MIC [3]: 0.5 µg/mL (≈ 1.38 µM) | MIC [4]: 0.5 µg/mL (≈ 1.38 µM) | MIC [5]: 1 µg/mL (≈ 2.75 µM)

CC(=O)NC[C@@H]1OC(=O)N2c3ccc(-c4ccc(C(C)=O)cc4)cc3OC[C@@H]12
MIC [1]: 1 µg/mL (≈ 2.63 µM) | MIC [2]: 1 µg/mL (≈ 2.63 µM) | MIC [3]: 0.5 µg/mL (≈ 1.31 µM) | MIC [4]: 2 µg/mL (≈ 5.26 µM) | MIC [5]: 1 µg/mL (≈ 2.63 µM)

CC(=O)NC[C@@H]1OC(=O)N2c3ccc(-c4cccc(N)c4)cc3OC[C@@H]12
MIC [1]: 0.5 µg/mL (≈ 1.41 µM) | MIC [2]: 1 µg/mL (≈ 2.83 µM) | MIC [3]: 1 µg/mL (≈ 2.83 µM) | MIC [4]: 0.5 µg/mL (≈ 1.41 µM) | MIC [5]: 1 µg/mL (≈ 2.83 µM)

CC(=O)NC[C@@H]1OC(=O)N2c3ccc(-c4ccncc4)cc3OC[C@@H]12
MIC [1]: 0.5 µg/mL (≈ 1.47 µM) | MIC [2]: 0.5 µg/mL (≈ 1.47 µM) | MIC [3]: 1 µg/mL (≈ 2.95 µM) | MIC [4]: 1 µg/mL (≈ 2.95 µM) | MIC [5]: 1 µg/mL (≈ 2.95 µM)

CC(=O)NC[C@@H]1OC(=O)N2c3ccc(-c4cccnc4)cc3OC[C@@H]12
MIC [1]: 0.5 µg/mL (≈ 1.47 µM) | MIC [2]: 0.5 µg/mL (≈ 1.47 µM) | MIC [3]: 0.5 µg/mL (≈ 1.47 µM) | MIC [4]: 0.5 µg/mL (≈ 1.47 µM) | MIC [5]: 1 µg/mL (≈ 2.95 µM)

CC(=O)NC[C@@H]1OC(=O)N2c3ccc(-c4ccc([N+](=O)[O-])nc4)cc3OC[C@@H]12
MIC [1]: 0.125 µg/mL (≈ 0.325 µM) | MIC [2]: 0.25 µg/mL (≈ 0.65 µM) | MIC [3]: 0.25 µg/mL (≈ 0.65 µM) | MIC [4]: 0.5 µg/mL (≈ 1.3 µM) | MIC [5]: 0.5 µg/mL (≈ 1.3 µM) | MIC [6]: 2 µg/mL (≈ 5.2 µM) | MIC [7]: 2 µg/mL (≈ 5.2 µM) | MIC [8]: 1 µg/mL (≈ 2.6 µM) | MIC [9]: 1 µg/mL (≈ 2.6 µM)

CC(=O)NC[C@@H]1OC(=O)N2c3ccc(-c4ccc(N)nc4)cc3OC[C@@H]12
MIC [1]: 0.5 µg/mL (≈ 1.41 µM) | MIC [2]: 0.5 µg/mL (≈ 1.41 µM) | MIC [3]: 0.5 µg/mL (≈ 1.41 µM) | MIC [4]: 0.5 µg/mL (≈ 1.41 µM) | MIC [5]: 0.5 µg/mL (≈ 1.41 µM) | MIC [6]: 16 µg/mL (≈ 45.2 µM) | MIC [7]: 4 µg/mL (≈ 11.3 µM) | MIC [8]: 2 µg/mL (≈ 5.64 µM) | MIC [9]: 2 µg/mL (≈ 5.64 µM)

CC(=O)NC[C@@H]1OC(=O)N2c3ccc(-c4cncnc4)cc3OC[C@@H]12
MIC [1]: 0.25 µg/mL (≈ 0.735 µM) | MIC [2]: 0.5 µg/mL (≈ 1.47 µM) | MIC [3]: 0.5 µg/mL (≈ 1.47 µM) | MIC [4]: 1 µg/mL (≈ 2.94 µM) | MIC [5]: 1 µg/mL (≈ 2.94 µM)

COc1ncc(-c2ccc3c(c2)OC[C@H]2[C@H](CNC(C)=O)OC(=O)N32)c(OC)n1
MIC [1]: 1 µg/mL (≈ 2.5 µM) | MIC [2]: 1 µg/mL (≈ 2.5 µM) | MIC [3]: 1 µg/mL (≈ 2.5 µM) | MIC [4]: 1 µg/mL (≈ 2.5 µM) | MIC [5]: 1 µg/mL (≈ 2.5 µM)
